# US10696707B2, “Polyene macrolide derivative” (Shionogi & Co., Ltd., priority 2014, dated 2020)
# Test system: A. flavus ATCC204304
# Test: Antifungal activity test, MIC by broth microdilution (CLSI M38-A2)
# Assay type: cell-based
# Settings: Aspergillus flavus; A. flavus ATCC204304; broth microdilution, 35° C., 24-48 hours, 100% inhibition; read-out: MIC
# In short: (§1)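 CLSI broth microdilution in RPMI 1640 with 2% glucose, 0.165 mol/L MOPS, pH 7.0; two-fold DMSO dilutions. MIC = lowest concentration giving 100% inhibition versus growth control.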
row,SMILES,MIC
1,CC(=O)NNC(=O)N[C@H]1[C@@H]2C[C@@H](O[C@@H]3O[C@H](C)[C@@H](O)[C@H](N)[C@@H]3O)/C=C/C=C/C=C/C=C/C=C/C=C/C=C/[C@H](C)[C@@H](O)[C@@H](C)[C@H](C)OC(=O)C[C@H](O)C[C@H](O)CC[C@@H](O)[C@H](O)C[C@H](O)C[C@](O)(C[C@@H]1O)O2 [I-19],1 µg/mL

# Test system: A. fumigatus ATCC204305
# Test: as above
# Assay type: cell-based
# Settings: Aspergillus fumigatus; A. fumigatus ATCC204305; broth microdilution, 35° C., 24-48 hours, 100% inhibition; read-out: MIC
# In short: as §1
row,SMILES,MIC
1,CC(=O)NNC(=O)N[C@H]1[C@@H]2C[C@@H](O[C@@H]3O[C@H](C)[C@@H](O)[C@H](N)[C@@H]3O)/C=C/C=C/C=C/C=C/C=C/C=C/C=C/[C@H](C)[C@@H](O)[C@@H](C)[C@H](C)OC(=O)C[C@H](O)C[C@H](O)CC[C@@H](O)[C@H](O)C[C@H](O)C[C@](O)(C[C@@H]1O)O2 [I-19],1 µg/mL

# Test system: red blood cells (5% RBC suspension)
# Test: Test Example 2-2: in vitro hemolytic activity test (upper limit 200 μmol/L)
# Assay type: cell-based
# Settings: Erythrocyte, 1 h, read-out: hemolysis IC50
# Protocol: Nephrotoxic potentials of the compounds of the present invention whose X is —N(R^F)—CO—X^1 and X^1 is the group represented by formula (III) and T is —N(R^a5)— were investigated by in vitro hemolytic activity test under the condition that the upper limit was 200 μmol/L as the required concentration to 50% of hemolysis (IC50).
# Defibrinated sterile blood was centrifuged at 700×g for 3 minutes and, and the supernatant was removed for 100% of red blood cells. After the cleaning with physiological saline, the washed blood cells was suspended in the medium (Earle's balanced salt sodium, bicarbonate, 0.1 g/L L-glutamine without phenol red), and was diluted by 5% (5% RBC suspension).
# The washed blood was diluted by 5% in water for injection (solution of complete hemolysis), and was used as the indication of optical density for complete hemolysis.
# The compounds of the present invention solution in DMSO (several and doubling dilutions starting from 10 mmol/L), DMSO as the negative control, and Amphotericin B as the positive control were used, and each 5 μL of these was added in to a well of V-form 96 well type microplate. Finally, the maximum concentration of the compounds of the present invention solution in DMSO was 200 μmol/L by adding 245 μL of the medium or 5% RBC suspension into the well.
# Two hundred fifty μL of the solution of complete hemolysis was added into another well and the microplate was incubated at 37° C. in 5% of CO2 concentration for an hour.
# After the incubation, each 100 μL of supernatants in wells was collected by centrifugation of the microplate at 300×g for 5 minutes and was located on a well of flat-form 96 well type microplate. An absorbance of each supernatant was measured at wavelength of 540 nm.
# Percent hemolysis was calculated by using the followed equation. The required concentration to 50% of hemolysis (IC50) was calculated based on the percent hemolysis. […] Hemolysis (%)=(CR−VM)×100÷(VL−VR) Where:
# CR: Absorbance of 5% RBC suspension incubated with the compounds of the present invention solution in DMSO
# VM: Absorbance of medium incubated with the compounds of the present invention solution in DMSO
# VL: Absorbance of solution of complete hemolysis
# VR: Absorbance of 5% RBC suspension incubated with DMSO
# The “>200” in the table means above IC50 value exceeded the upper concentration 200 μmol/L.
row,SMILES,IC50
1,C[C@@H]1[C@H](O)[C@@H](C)/C=C/C=C/C=C/C=C/C=C/C=C/C=C/[C@H](O[C@@H]2O[C@H](C)[C@@H](O)[C@H](N)[C@@H]2O)C[C@@H]2O[C@](O)(C[C@@H](O)C[C@@H](O)[C@H](O)CC[C@@H](O)C[C@@H](O)CC(=O)O[C@H]1C)C[C@H](O)[C@H]2NC(=O)NNS(=O)(=O)c1nnc[nH]1 [I-246],> 200 µM
2,C[C@@H]1[C@H](O)[C@@H](C)/C=C/C=C/C=C/C=C/C=C/C=C/C=C/[C@H](O[C@@H]2O[C@H](C)[C@@H](O)[C@H](N)[C@@H]2O)C[C@@H]2O[C@](O)(C[C@@H](O)C[C@@H](O)[C@H](O)CC[C@@H](O)C[C@@H](O)CC(=O)O[C@H]1C)C[C@H](O)[C@H]2NC(=O)NNC(=O)C1(S(C)(=O)=O)CC1 [I-263],> 200 µM

# Same assay, conditions: Erythrocyte, 1 h; Test Example 2-2; hemolysis method 200 (upper concentration 200 μmol/L); 5% RBC suspension, 37° C., one hour; read-out: hemolysis IC50
row,SMILES,IC50
1,CC(=O)NNC(=O)N[C@H]1[C@@H]2C[C@@H](O[C@@H]3O[C@H](C)[C@@H](O)[C@H](N)[C@@H]3O)/C=C/C=C/C=C/C=C/C=C/C=C/C=C/[C@H](C)[C@@H](O)[C@@H](C)[C@H](C)OC(=O)C[C@H](O)C[C@H](O)CC[C@@H](O)[C@H](O)C[C@H](O)C[C@](O)(C[C@@H]1O)O2 [I-19],> 200 µM
2,C[C@@H]1[C@H](O)[C@@H](C)/C=C/C=C/C=C/C=C/C=C/C=C/C=C/[C@H](O[C@@H]2O[C@H](C)[C@@H](O)[C@H](N)[C@@H]2O)C[C@@H]2O[C@](O)(C[C@@H](O)C[C@@H](O)[C@H](O)CC[C@@H](O)C[C@@H](O)CC(=O)O[C@H]1C)C[C@H](O)[C@H]2NC(=O)NNC(=O)[C@H](O)CO [I-223],> 200 µM

# Same assay, conditions: Test Example 2-2; hemolysis method 200 (upper concentration 200 μmol/L); 5% RBC suspension, 37° C., one hour; read-out: hemolysis IC50
row,SMILES,IC50
1,C[C@@H]1[C@H](O)[C@@H](C)/C=C/C=C/C=C/C=C/C=C/C=C/C=C/[C@H](O[C@@H]2O[C@H](C)[C@@H](O)[C@H](N)[C@@H]2O)C[C@@H]2O[C@](O)(C[C@@H](O)C[C@@H](O)[C@H](O)CC[C@@H](O)C[C@@H](O)CC(=O)O[C@H]1C)C[C@H](O)[C@H]2NC(=O)NNC(=O)NCC(N)=O [I-220],> 200 µM
2,C[C@@H]1[C@H](O)[C@@H](C)/C=C/C=C/C=C/C=C/C=C/C=C/C=C/[C@H](O[C@@H]2O[C@H](C)[C@@H](O)[C@H](N)[C@@H]2O)C[C@@H]2O[C@](O)(C[C@@H](O)C[C@@H](O)[C@H](O)CC[C@@H](O)C[C@@H](O)CC(=O)O[C@H]1C)C[C@H](O)[C@H]2NC(=O)NNC(=O)Nc1ccccn1 [I-221],> 200 µM
3,C[C@@H]1[C@H](O)[C@@H](C)/C=C/C=C/C=C/C=C/C=C/C=C/C=C/[C@H](O[C@@H]2O[C@H](C)[C@@H](O)[C@H](N)[C@@H]2O)C[C@@H]2O[C@](O)(C[C@@H](O)C[C@@H](O)[C@H](O)CC[C@@H](O)C[C@@H](O)CC(=O)O[C@H]1C)C[C@H](O)[C@H]2NC(=O)NNC(=O)Nc1cccnn1 [I-224],> 200 µM
4,C[C@@H]1[C@H](O)[C@@H](C)/C=C/C=C/C=C/C=C/C=C/C=C/C=C/[C@H](O[C@@H]2O[C@H](C)[C@@H](O)[C@H](N)[C@@H]2O)C[C@@H]2O[C@](O)(C[C@@H](O)C[C@@H](O)[C@H](O)CC[C@@H](O)C[C@@H](O)CC(=O)O[C@H]1C)C[C@H](O)[C@H]2NC(=O)NNC(=O)NC[C@H](O)CO [I-225],> 200 µM
5,CNC(=O)NNC(=O)N[C@H]1[C@@H]2C[C@@H](O[C@@H]3O[C@H](C)[C@@H](O)[C@H](N)[C@@H]3O)/C=C/C=C/C=C/C=C/C=C/C=C/C=C/[C@H](C)[C@@H](O)[C@@H](C)[C@H](C)OC(=O)C[C@H](O)C[C@H](O)CC[C@@H](O)[C@H](O)C[C@H](O)C[C@](O)(C[C@@H]1O)O2 [I-228],> 200 µM
6,C[C@@H]1[C@H](O)[C@@H](C)/C=C/C=C/C=C/C=C/C=C/C=C/C=C/[C@H](O[C@@H]2O[C@H](C)[C@@H](O)[C@H](N)[C@@H]2O)C[C@@H]2O[C@](O)(C[C@@H](O)C[C@@H](O)[C@H](O)CC[C@@H](O)C[C@@H](O)CC(=O)O[C@H]1C)C[C@H](O)[C@H]2NC(=O)NNC(=O)NCC(O)CCl (stereo partly shown) [I-229],> 200 µM
7,C[C@@H]1[C@H](O)[C@@H](C)/C=C/C=C/C=C/C=C/C=C/C=C/C=C/[C@H](O[C@@H]2O[C@H](C)[C@@H](O)[C@H](N)[C@@H]2O)C[C@@H]2O[C@](O)(C[C@@H](O)C[C@@H](O)[C@H](O)CC[C@@H](O)C[C@@H](O)CC(=O)O[C@H]1C)C[C@H](O)[C@H]2NC(=O)NNC(=O)C(C)(C)CO [I-232],> 200 µM
8,C[C@@H]1[C@H](O)[C@@H](C)/C=C/C=C/C=C/C=C/C=C/C=C/C=C/[C@H](O[C@@H]2O[C@H](C)[C@@H](O)[C@H](N)[C@@H]2O)C[C@@H]2O[C@](O)(C[C@@H](O)C[C@@H](O)[C@H](O)CC[C@@H](O)C[C@@H](O)CC(=O)O[C@H]1C)C[C@H](O)[C@H]2NC(=O)NNC(=O)C1CCC(O)CC1 (stereo partly shown) [I-239],> 200 µM
9,C[C@@H]1[C@H](O)[C@@H](C)/C=C/C=C/C=C/C=C/C=C/C=C/C=C/[C@H](O[C@@H]2O[C@H](C)[C@@H](O)[C@H](N)[C@@H]2O)C[C@@H]2O[C@](O)(C[C@@H](O)C[C@@H](O)[C@H](O)CC[C@@H](O)C[C@@H](O)CC(=O)O[C@H]1C)C[C@H](O)[C@H]2NC(=O)NNC(=O)[C@H](O)[C@@H](O)[C@H](O)[C@H](O)CO [I-242],> 200 µM
10,C[C@@H]1[C@H](O)[C@@H](C)/C=C/C=C/C=C/C=C/C=C/C=C/C=C/[C@H](O[C@@H]2O[C@H](C)[C@@H](O)[C@H](N)[C@@H]2O)C[C@@H]2O[C@](O)(C[C@@H](O)C[C@@H](O)[C@H](O)CC[C@@H](O)C[C@@H](O)CC(=O)O[C@H]1C)C[C@H](O)[C@H]2NC(=O)NNC(=O)CO [I-243],> 200 µM
11,C[C@@H]1[C@H](O)[C@@H](C)/C=C/C=C/C=C/C=C/C=C/C=C/C=C/[C@H](O[C@@H]2O[C@H](C)[C@@H](O)[C@H](N)[C@@H]2O)C[C@@H]2O[C@](O)(C[C@@H](O)C[C@@H](O)[C@H](O)CC[C@@H](O)C[C@@H](O)CC(=O)O[C@H]1C)C[C@H](O)[C@H]2NC(=O)NNC(=O)[C@H](O)C(C)(C)CO [I-245],> 200 µM
12,C[C@@H]1[C@H](O)[C@@H](C)/C=C/C=C/C=C/C=C/C=C/C=C/C=C/[C@H](O[C@@H]2O[C@H](C)[C@@H](O)[C@H](N)[C@@H]2O)C[C@@H]2O[C@](O)(C[C@@H](O)C[C@@H](O)[C@H](O)CC[C@@H](O)C[C@@H](O)CC(=O)O[C@H]1C)C[C@H](O)[C@H]2NC(=O)NNC(=O)C1(CO)CC1 [I-247],> 200 µM
13,C[C@@H]1[C@H](O)[C@@H](C)/C=C/C=C/C=C/C=C/C=C/C=C/C=C/[C@H](O[C@@H]2O[C@H](C)[C@@H](O)[C@H](N)[C@@H]2O)C[C@@H]2O[C@](O)(C[C@@H](O)C[C@@H](O)[C@H](O)CC[C@@H](O)C[C@@H](O)CC(=O)O[C@H]1C)C[C@H](O)[C@H]2NC(=O)NNC(=O)C[C@@H](O)C(=O)O [I-253],> 200 µM
14,C[C@@H]1[C@H](O)[C@@H](C)/C=C/C=C/C=C/C=C/C=C/C=C/C=C/[C@H](O[C@@H]2O[C@H](C)[C@@H](O)[C@H](N)[C@@H]2O)C[C@@H]2O[C@](O)(C[C@@H](O)C[C@@H](O)[C@H](O)CC[C@@H](O)C[C@@H](O)CC(=O)O[C@H]1C)C[C@H](O)[C@H]2NC(=O)NNC(=O)C1(C(N)=O)CC1 [I-256],> 200 µM
15,C[C@@H]1[C@H](O)[C@@H](C)/C=C/C=C/C=C/C=C/C=C/C=C/C=C/[C@H](O[C@@H]2O[C@H](C)[C@@H](O)[C@H](N)[C@@H]2O)C[C@@H]2O[C@](O)(C[C@@H](O)C[C@@H](O)[C@H](O)CC[C@@H](O)C[C@@H](O)CC(=O)O[C@H]1C)C[C@H](O)[C@H]2NC(=O)NNC(=O)C1(O)CC1 [I-257],> 200 µM

# Test system: C. albicans ATCC90028
# Test: Antifungal activity test, MIC by broth microdilution (CLSI M27-A3)
# Assay type: cell-based
# Settings: Candida albicans; C. albicans ATCC90028; broth microdilution, 35° C., 24-48 hours, 100% inhibition; read-out: MIC
# In short: as §1
row,SMILES,MIC
1,CC(=O)NNC(=O)N[C@H]1[C@@H]2C[C@@H](O[C@@H]3O[C@H](C)[C@@H](O)[C@H](N)[C@@H]3O)/C=C/C=C/C=C/C=C/C=C/C=C/C=C/[C@H](C)[C@@H](O)[C@@H](C)[C@H](C)OC(=O)C[C@H](O)C[C@H](O)CC[C@@H](O)[C@H](O)C[C@H](O)C[C@](O)(C[C@@H]1O)O2 [I-19],0.25 µg/mL
